In paper PMC7104388 (Journal of medicinal chemistry, 2019):

Assays:
P. falciparum Dd2 = experiment: Parasite growth inhibition, parental Dd2; conditions: Plasmodium falciparum
PAMPA permeability = assay type: in vitro ADME; conditions: pH 7.4
[1] = test system: wild-type Pf Dd2 parasites; experiment: Dual drug assay and isobologram analysis, 72 h; assay type: cell-based, P. falciparum; conditions: WHZ-04 in combination with WLW-VS
Pf 3D7 = experiment: Parasite growth inhibition, erythrocytic stage, SYBR Green 72 h
Pf20S β5 [2] = target: T1, Pf20S β5 (Plasmodium falciparum, UniProt A0A5K1K7U1+Q8IJT1)
T1 sequence (Q8IJT1 61-271): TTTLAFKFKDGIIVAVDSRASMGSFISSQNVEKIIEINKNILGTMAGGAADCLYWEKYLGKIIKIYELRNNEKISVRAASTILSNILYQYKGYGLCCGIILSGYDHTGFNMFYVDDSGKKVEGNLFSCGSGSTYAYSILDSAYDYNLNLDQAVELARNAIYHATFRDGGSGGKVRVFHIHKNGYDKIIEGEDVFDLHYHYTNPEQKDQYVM
T1 sequence (A0A5K1K7U1 29-240): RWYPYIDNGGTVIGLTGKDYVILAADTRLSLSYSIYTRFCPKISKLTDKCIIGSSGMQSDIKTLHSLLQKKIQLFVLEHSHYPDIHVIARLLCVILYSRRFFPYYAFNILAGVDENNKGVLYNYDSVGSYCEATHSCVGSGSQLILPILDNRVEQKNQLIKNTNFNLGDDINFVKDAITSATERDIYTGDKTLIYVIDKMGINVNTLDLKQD

Pf20S β5 [3] = target: T1, Pf20S β5; experiment: Pf20S active subunit labeling by MV151; assay type: binding, P. falciparum; conditions: Figure 2B
[4] = test system: P. falciparum clinical isolates (Uganda); experiment: Ex vivo 72-h growth inhibition of P. falciparum field isolates in Uganda; assay type: cell-based; conditions: Plasmodium falciparum, read-out: EC50 range against Ugandan isolates
i-20S β5i = i-20S β5i (Homo sapiens, UniProt P20618+P28062); experiment: human i-20S β5i enzyme inhibition; assay type: biochemical
Pf20S β5 [5] = target: T1, Pf20S β5; experiment: biochemical; conditions: IC50 Pf20S β5, Table 3; mean of at least three independent experiments
c-20S β5c = c-20S β5c (Homo sapiens, UniProt P20618+P28074); experiment: human c-20S β5c enzyme inhibition; assay type: biochemical

Cc1cc(C(=O)N[C@@H](CC(=O)NC(C)(C)C)C(=O)NCCNC(=O)c2cccc(-n3cccn3)c2)no1 [TDI4258]
EC90 (P. falciparum Dd2): 60 nM

Cc1ccc(S(=O)(=O)N[C@@H](CC(=O)NC(C)(C)C)C(=O)NCCNC(=O)c2ccccc2)cc1 [WHZ-04]
PAMPA @ pH7.4 (PAMPA permeability): 137 nm/sec
type of interaction by isobologram analysis [1]: synergistic to additive
∑FIC ([1]; 72-h dual drug assay, three independent experiments): 0.52 ± 0.13

Cc1ccc(S(=O)(=O)N[C@@H](CC(=O)NC(C)(C)C)C(=O)NCCNC(=O)c2ccccc2F)cc1 [WHZ-05]
PAMPA @ pH7.4 (PAMPA permeability): 105 nm/sec
fold decrease in activity against cultured parasites compared to PKS21221 (Pf 3D7): 4.7 fold

Cc1ccc(S(=O)(=O)N[C@@H](CC(=O)NC(C)(C)C)C(=O)NCCNC(=O)c2ccc(F)cc2)cc1 [WHZ-07]
fold reduction in potency relative to WHZ-04 (Pf20S β5 [2]): 6 fold

Cc1ccc(S(=O)(=O)N[C@@H](CC(=O)NC(C)(C)C)C(=O)NCCNC(=O)c2ccccc2Cl)cc1 [WHZ-08]
fold reduction in potency relative to WHZ-04 (Pf20S β5 [2]): 10 fold

COc1cccc(C(=O)NCCNC(=O)[C@H](CC(=O)NC(C)(C)C)NS(=O)(=O)c2ccc(C)cc2)c1 [WHZ-12]
PAMPA @ pH7.4 (PAMPA permeability): 159 nm/sec
fold enhanced potency relative to WHZ-11 (Pf20S β5 [2]): 2.5 fold

C#Cc1cccc(C(=O)NCCNC(=O)[C@H](CC(=O)NC(C)(C)C)NS(=O)(=O)c2ccc(C)cc2)c1 [WHZ-13]
PAMPA @ pH7.4 (PAMPA permeability): 203 nm/sec
fold enhanced potency relative to WHZ-11 (Pf20S β5 [2]): 4.8 fold
inhibition of labeling of Pf20S β5 by MV151 (Pf20S β5 [3]): only inhibited the labeling of the Pf20S β5
EC50 [4]: 4.4 to 16 nM

Cc1ccc(S(=O)(=O)N[C@@H](CC(=O)NC(C)(C)C)C(=O)NCCNC(=O)c2c(O)cccc2F)cc1 [WHZ-20]
IC50 (i-20S β5i): 9970 nM
fold of selectivity, β5i over Pf20S β5 (i-20S β5i; in parenthesis in Table 3): 2.5 fold
IC50 (Pf20S β5 [5]): 4060 nM
IC50 (c-20S β5c): > 100000 nM
fold of selectivity, β5c over Pf20S β5 (c-20S β5c; in parenthesis in Table 3): > 24.7 fold

CCN(CC)CCCC(C)Nc1ccnc2cc(Cl)ccc12 (centres unmarked) [chloroquine, reference compound]
EC50 [4]: 4.5 to 27 nM
